Source: patent US20230365563A1, “QUINAZOLINE COMPOUND AND APPLICATION THEREOF” (SHANGHAI PHARMACEUTICALS HOLDING CO., LTD., priority 2020, published 2023)
Counter-ions that a name gives are not always drawn.

Experiments:
KRAS_WT and SOS1 = target: T1, KRAS_WT and SOS1 (Homo sapiens, UniProt P01116); assay: Inhibition of KRAS_WT/SOS1 binding (Cisbio binding kit, 665/615 ratio), Effect Embodiment C; conditions: read-out: GTP-KRAS-WT:SOS1 IC50
T1 construct: purchased
Procedure, shortened: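 Compounds tested as 3-fold, 11-point dilutions in duplicate at 1% DMSO final against the KRAS_WT/SOS1 binding system. IC50 derived by nonlinear regression fit.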

KRAS-G12D and SOS1 = target: T2, KRAS-G12D and SOS1 (Homo sapiens, UniProt P01116, G12D); assay: Inhibition of KRAS-G12D/SOS1 binding (Cisbio binding kit, 665/615 ratio), Effect Embodiment A; conditions: read-out: GTP-KRAS-G12D:SOS1 IC50
T2 construct: purchased
Procedure, shortened: (§1)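 Compounds are tested over eleven threefold dilution steps in duplicate, with final DMSO at 1%.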

KRAS_G12D and cRAF = target: T3, KRAS_G12D and cRAF (Homo sapiens, UniProt P01116, G12D); assay: Inhibition of KRAS_G12D/cRAF binding (Cisbio binding kit, 665/615 ratio), Effect Embodiment B; conditions: read-out: GTP-KRAS-G12D:CRAF IC50
T3 construct: purchased
Procedure, shortened: as §1

T1 sequence (P01116 1-188 isoform P01116-2): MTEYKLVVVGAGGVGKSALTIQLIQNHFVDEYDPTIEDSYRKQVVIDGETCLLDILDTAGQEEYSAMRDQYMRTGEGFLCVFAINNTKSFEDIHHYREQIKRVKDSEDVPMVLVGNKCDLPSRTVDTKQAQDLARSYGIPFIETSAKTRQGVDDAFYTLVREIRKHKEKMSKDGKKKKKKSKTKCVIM
T2 sequence (P01116 1-188 isoform P01116-2 G12D): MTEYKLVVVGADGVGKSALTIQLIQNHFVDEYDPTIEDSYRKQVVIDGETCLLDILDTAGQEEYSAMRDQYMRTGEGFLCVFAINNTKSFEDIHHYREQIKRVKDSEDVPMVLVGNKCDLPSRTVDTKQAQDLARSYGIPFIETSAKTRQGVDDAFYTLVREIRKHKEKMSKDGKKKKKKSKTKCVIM
T3 sequence (P01116 1-188 isoform P01116-2 G12D): as above

Structure (SMILES) | IC50 (KRAS_WT and SOS1) [nM] | IC50 (KRAS-G12D and SOS1) [nM] | IC50 (KRAS_G12D and cRAF) [nM]
Oc1cc(-c2c(Cl)cc3c(N4CC5CCC(C4)N5)nc(OC[C@@]45CCCN4C[C@H](F)C5)nc3c2F)c2ccccc2c1 (single isomer, unassigned) [Compound 176, 4-((R or S)-4-((1R,5S)-3,8-diazabicyclo[3.2.1]octan-3-yl)-6-chloro-8-fluoro-2-((2R,7aS)-2-fluorotetrahydro-1H-pyrrolin-7a(5H)-yl)methoxy)quinazolin-7-yl)naphthalenol formate] | 28 | 13.6 | 6.98
Oc1cc(-c2c(Cl)cc3c(N4CC5CCC(C4)N5)nc(OCCCN4C5CCCC4COC5)nc3c2F)c2ccccc2c1 (single isomer, unassigned) [Compound 177, (R or S)-4-(2-(3-((1R,5S)-3-oxa-9-azabicyclo[3.3.1]nonan-9-yl)propoxy)-4-((1R,5S)-3,8-diazabicyclo[3.2.1]octan-3-yl)-6-chloro-8-fluoroquinazolin-7-yl)naphthalen-2-ol formate] | 1190 | 40.5 | 121
C[C@H]1COC[C@H](C)N1CCCOc1nc(N2CC3CCC(C2)N3)c2cc(Cl)c(-c3cc(O)cc4ccccc34)c(F)c2n1 (single isomer, unassigned) [Compound 180, 4-((R or S)-4-((1R,5S)-3,8-diazabicyclo[3.2.1]octan-3-yl)-6-chloro-2-(3-((3S,5S)-3,5-dimethylmorpholinyl)propoxy)-8-fluoroquinazolin-7-yl)naphthalen-2-ol diformate] | 3930 | 87.3 | 256
C[C@@H]1COCCN1CCCOc1nc(N2C[C@H]3CC[C@@H](C2)N3)c2cc(Cl)c(-c3cc(O)cc4ccccc34)c(F)c2n1 (single isomer, unassigned) [Compound 181, (R or S)-4-(4-((1R,5S)-3,8-diazabicyclo[3.2.1]octan-3-yl)-6-chloro-8-fluoro-2-(3-((R)-3-methylmorpholinyl)propoxy)quinazolin-7-yl)naphthalen-2-ol diformate] | 3090 | 38.1 | 136
CO[C@@H](COc1nc(N2CC3CCC(C2)N3)c2cc(Cl)c(-c3cc(O)cc4ccccc34)c(F)c2n1)CN1C2CCC1COC2 (single isomer, unassigned) [Compound 182, (4R or S)-4-(2-((2R)-3-(3-oxa-8-azabicyclo[3.2.1]octan-8-yl)-2-methoxypropoxy)-4-((1R,5S)-3,8-diazabicyclo[3.2.1]octan-3-yl)-6-chloro-8-fluoroquinazolin-7-yl)naphthalen-2-ol diformate] | 3400 | 53.3 | 219
CN1C[C@@H]2C[C@@H]2[C@H]1COc1nc(N2CC3CCC(C2)N3)c2cc(Cl)c(-c3cc(O)cc4ccccc34)c(F)c2n1 (single isomer, unassigned) [Compound 183, 4-((R or S)-4-((1R,5S)-3,8-diazabicyclo[3.2.1]octan-3-yl)-6-chloro-8-fluoro-2-((1S,2S,5R)-3-methyl-3-azabicyclo[3.1.0]hexan-2-yl)methoxy)quinazolin-7-yl)naphthalen-2-ol diformate] | 1510 | 29.2 | 88.9
CN(C)CC1(COc2nc(N3CC4CCC(C3)N4)c3cc(Cl)c(-c4cc(O)cc5ccccc45)c(F)c3n2)CC1 (single isomer, unassigned) [Compound 186, 4-((R or S)-4-((1R,5S)-3,8-diazabicyclo[3.2.1]octan-3-yl)-6-chloro-2-((1-((dimethylamino)methyl)cyclopropyl)methoxy)-8-fluoroquinazolin-7-yl)naphthalen-2-ol diformate] | 233 | 16.9 | 18.1
Oc1cc(-c2c(Cl)cc3c(N4CC5CCC(C4)N5)nc(OCCCN4CC5CCC(C4)O5)nc3c2F)c2ccccc2c1 (single isomer, unassigned) [Compound 188, 4-((7R or S)-2-(3-(8-oxa-3-azabicyclo[3.2.1]octan-3-yl)propoxy)-4-((1R,5S)-3,8-diazabicyclo[3.2.1]octan-3-yl)-6-chloro-8-fluoroquinazolin-7-yl)naphthalen-2-ol formate] | 1020 | 35.6 | 133
C[C@H]1C[C@@H](COc2nc(N3CC4CCC(C3)N4)c3cc(Cl)c(-c4cc(O)cc5ccccc45)c(F)c3n2)N(C)C1 (single isomer, unassigned) [Compound 190, 4-((R or S)-4-((1R,5S)-3,8-diazabicyclo[3.2.1]octan-3-yl)-6-chloro-2-((2S,4S)-1,4-dimethylpyrrolidin-2-yl)methoxy)-8-fluoroquinazolin-7-yl)naphthalen-2-ol diformate] | 292 | 15.3 | 28.9

Second part, the compound after the results:

IC50 (KRAS_WT and SOS1) [nM] | IC50 (KRAS-G12D and SOS1) [nM] | IC50 (KRAS_G12D and cRAF) [nM] | Structure (SMILES)
836 | 21.6 | 18.1 | CC(COc1nc(N2CC3CCC(C2)N3)c2cc(Cl)c(-c3cc(O)cc4ccccc34)c(F)c2n1)CN1C2CCC1COC2 (single isomer, unassigned) [Compound 178a, 4-((7R or 7S)-2-((2R or 2S)-3-(3-oxa-8-azabicyclo[3.2.1]octan-8-yl)-2-methylpropoxy)-4-((1R,5S)-3,8-diazabicyclo[3.2.1]octan-3-yl)-6-chloro-8-fluoroquinazolin-7-yl)naphthalen-2-ol diformate]
1050 | 39.7 | 150 | CC(COc1nc(N2CC3CCC(C2)N3)c2cc(Cl)c(-c3cc(O)cc4ccccc34)c(F)c2n1)CN1C2CCC1COC2 (single isomer, unassigned) [Compound 178b, 4-((7R or 7S)-2-((2S or 2R)-3-(3-oxa-8-azabicyclo[3.2.1]octan-8-yl)-2-methylpropoxy)-4-((1R,5S)-3,8-diazabicyclo[3.2.1]octan-3-yl)-6-chloro-8-fluoroquinazolin-7-yl)naphthalen-2-ol dicarboxylate]
5400 | 60 | 134 | Oc1cc(-c2c(Cl)cc3c(N4CC5CCC(C4)N5)nc(OCC(F)CN4C5CCC4COC5)nc3c2F)c2ccccc2c1 (single isomer, unassigned) [Compound 179b, ((4R or 4S)-4-(2-((2S or 2R)-3-(3-oxa-8-azabicyclo[3.2.1]octan-8-yl)-2-fluoropropoxy)-4-((1R,5S)-3,8-diazabicyclo[3.2.1]octan-3-yl)-6-chloro-8-fluoroquinazolin-7-yl)naphthalen-2-ol diformate]
1350 | 27.4 | 66.2 | Oc1cc(-c2c(Cl)cc3c(N4CC5CCC(C4)N5)nc(OCCCN4CC5CCC4CO5)nc3c2F)c2ccccc2c1 (single isomer, unassigned) [Compound 187a, (R or S)-4-(2-(3-((1S,4S or 1R,4R)-2-oxa-5-azabicyclo[2.2.2]octan-5-yl)propoxy)-4-((1R,5S)-3,8-diazabicyclo[3.2.1]octan-3-yl)-6-chloro-8-fluoroquinazolin-7-yl)naphthalen-2-ol diformate]
1670 | 27.7 | 115 | Oc1cc(-c2c(Cl)cc3c(N4CC5CCC(C4)N5)nc(OCCCN4CC5CCC4CO5)nc3c2F)c2ccccc2c1 (single isomer, unassigned) [Compound 187b, (R or S)-4-(2-(3-((1R,4R or 1S,4S)-2-oxa-5-azabicyclo[2.2.2]octan-5-yl)propoxy)-4-((1R,5S)-3,8-diazabicyclo[3.2.1]octan-3-yl)-6-chloro-8-fluoroquinazolin-7-yl)naphthalen-2-ol diformate]
205 | 27.9 | 155 | CN1CCC[C@H]1COc1nc(N2CC3(C)CCC(C)(C2)N3)c2cc(Cl)c(-c3cc(O)cc4ccccc34)c(F)c2n1 (single isomer, unassigned) [Compound 194a, 4-((R or S)-6-chloro-4-((1R,5S)-1,5-dimethyl-3,8-diazabicyclo[3.2.1]octan-3-yl)-8-fluoro-2-(((S)-1-methylpyrrolidin-2-yl)methoxy)quinazolin-7-yl)naphthalen-2-ol diformate]
6490 | 57.7 | 334 | CN1CCC[C@H]1COc1nc(N2CC3CCC(C2)N3)c2cc(Cl)c(-c3c(F)c(O)cc4ccccc34)c(F)c2n1 (single isomer, unassigned) [Compound 195b, (S or R)-4-(4-((1R,5S)-3,8-diazabicyclo[3.2.1]octan-3-yl)-6-chloro-8-fluoro-2-((S)-1-methylpyrrolidin-2-yl)methoxy)quinazolin-7-yl)-3-fluoronaphthalen-2-ol formate]
833 | 17.8 | 59.8 | Oc1cc(Cl)c(C2CC2)c(-c2c(Cl)cc3c(N4C[C@H]5CC[C@@H](C4)N5)nc(OCCCN4C5CCC4COC5)nc3c2F)c1 (single isomer, unassigned) [Compound 197a, 3-((7R or 7S)-2-(3-(3-oxa-8-azabicyclo[3.2.1]octan-8-yl)propoxy)-4-((1R,5S)-3,8-diazabicyclo[3.2.1]octan-3-yl)-6-chloro-8-fluoroquinazolin-7-yl)-5-chloro-4-cyclopropylphenol formate]
23.5 | 11.4 | 6.11 | Oc1cc(Cl)c(C2CC2)c(-c2c(Cl)cc3c(N4CC5CCC(C4)N5)nc(OC[C@@]45CCCN4C[C@H](F)C5)nc3c2F)c1 (single isomer, unassigned) [Compound 198a, 3-((R or S)-4-((1R,5S)-3,8-diazabicyclo[3.2.1]octan-3-yl)-6-chloro-8-fluoro-2-((2R,7aS)-2-fluorotetrahydro-1H-pyrrolin-7a(5H)-yl)methoxy)quinazolin-7-yl)-5-chloro-4-cyclopropylphenol formate]
